# pIC50: −log10 of the molar value.
# Key:
# Src = Src (Homo sapiens, UniProt P12931); assay: Kinase activity assay, Src
# B-Raf V600E = B-Raf V600E (Homo sapiens, UniProt P15056, V600E); assay: Kinase activity assay, B-Raf V600E; format: biochemical; conditions: read-out: activity toward kinase B-Raf V600E, IC50
# C-Raf = C-Raf (Homo sapiens, UniProt P04049); assay: Kinase activity assay, C-Raf
# Kdr = Kdr (Homo sapiens, UniProt P35968); assay: Kinase activity assay, Kdr
# B-Raf = B-Raf (Homo sapiens, UniProt P15056); assay: Kinase activity assay, B-Raf; format: biochemical; conditions: read-out: activity toward kinase B-Raf, IC50
# TrkA = TrkA (Homo sapiens, UniProt P04629); assay: Kinase activity assay, TrkA
# MAP4K4 = MAP4K4 (Homo sapiens, UniProt O95819); assay: Kinase activity assay, MAP4K4
# A-Raf = target: T1, A-Raf (Homo sapiens, UniProt P10398); assay: Kinase activity assay, A-Raf
# T1 sequence (P10398 1-606): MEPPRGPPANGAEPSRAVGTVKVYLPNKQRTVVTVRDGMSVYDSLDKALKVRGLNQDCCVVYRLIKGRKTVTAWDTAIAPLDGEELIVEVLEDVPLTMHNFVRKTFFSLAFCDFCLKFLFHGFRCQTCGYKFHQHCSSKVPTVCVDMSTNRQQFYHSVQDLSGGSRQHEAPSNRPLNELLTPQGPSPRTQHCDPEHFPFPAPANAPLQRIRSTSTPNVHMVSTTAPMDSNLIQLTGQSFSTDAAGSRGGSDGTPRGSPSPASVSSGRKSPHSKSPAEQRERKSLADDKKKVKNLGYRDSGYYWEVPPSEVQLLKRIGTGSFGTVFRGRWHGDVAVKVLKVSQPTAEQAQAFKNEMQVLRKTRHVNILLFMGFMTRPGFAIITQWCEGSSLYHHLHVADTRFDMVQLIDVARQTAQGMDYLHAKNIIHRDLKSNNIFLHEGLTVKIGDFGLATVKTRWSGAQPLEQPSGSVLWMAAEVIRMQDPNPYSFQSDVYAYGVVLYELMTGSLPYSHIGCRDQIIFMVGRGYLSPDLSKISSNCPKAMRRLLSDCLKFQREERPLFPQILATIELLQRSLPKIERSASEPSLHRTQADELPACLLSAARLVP
# TEC = target: T2, TEC (Homo sapiens, UniProt P42680); assay: Kinase activity assay, TEC
# T2 sequence (P42680 1-631): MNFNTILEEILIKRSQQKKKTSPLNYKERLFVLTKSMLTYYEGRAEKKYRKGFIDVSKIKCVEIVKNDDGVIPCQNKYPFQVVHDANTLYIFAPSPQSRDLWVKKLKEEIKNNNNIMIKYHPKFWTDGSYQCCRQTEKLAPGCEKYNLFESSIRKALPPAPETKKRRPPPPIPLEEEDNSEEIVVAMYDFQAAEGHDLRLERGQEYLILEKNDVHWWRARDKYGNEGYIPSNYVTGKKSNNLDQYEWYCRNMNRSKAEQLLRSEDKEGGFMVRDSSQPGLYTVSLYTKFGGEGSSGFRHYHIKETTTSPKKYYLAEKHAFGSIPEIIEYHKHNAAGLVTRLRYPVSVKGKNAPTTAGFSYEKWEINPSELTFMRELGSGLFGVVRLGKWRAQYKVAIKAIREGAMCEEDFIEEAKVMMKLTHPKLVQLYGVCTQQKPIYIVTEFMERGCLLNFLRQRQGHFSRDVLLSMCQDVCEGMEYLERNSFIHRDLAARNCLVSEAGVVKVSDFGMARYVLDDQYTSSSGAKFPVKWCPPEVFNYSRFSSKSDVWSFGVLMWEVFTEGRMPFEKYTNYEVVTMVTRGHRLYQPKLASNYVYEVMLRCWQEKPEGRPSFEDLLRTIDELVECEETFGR
# Kit = Kit (Homo sapiens, UniProt P10721); assay: Kinase activity assay, Kit
# Fms = Fms (Homo sapiens, UniProt P07333); assay: Kinase activity assay, Fms
# Flt1 = Flt1 (Homo sapiens, UniProt P17948); assay: Kinase activity assay, Flt1
# Btk = Btk (Homo sapiens, UniProt Q06187); assay: Kinase activity assay, Btk
# PI3Kα = PI3Kα (Homo sapiens, UniProt P42336); assay: Kinase activity assay, PI3Kα
# Fms, sequence (P07333 20-972): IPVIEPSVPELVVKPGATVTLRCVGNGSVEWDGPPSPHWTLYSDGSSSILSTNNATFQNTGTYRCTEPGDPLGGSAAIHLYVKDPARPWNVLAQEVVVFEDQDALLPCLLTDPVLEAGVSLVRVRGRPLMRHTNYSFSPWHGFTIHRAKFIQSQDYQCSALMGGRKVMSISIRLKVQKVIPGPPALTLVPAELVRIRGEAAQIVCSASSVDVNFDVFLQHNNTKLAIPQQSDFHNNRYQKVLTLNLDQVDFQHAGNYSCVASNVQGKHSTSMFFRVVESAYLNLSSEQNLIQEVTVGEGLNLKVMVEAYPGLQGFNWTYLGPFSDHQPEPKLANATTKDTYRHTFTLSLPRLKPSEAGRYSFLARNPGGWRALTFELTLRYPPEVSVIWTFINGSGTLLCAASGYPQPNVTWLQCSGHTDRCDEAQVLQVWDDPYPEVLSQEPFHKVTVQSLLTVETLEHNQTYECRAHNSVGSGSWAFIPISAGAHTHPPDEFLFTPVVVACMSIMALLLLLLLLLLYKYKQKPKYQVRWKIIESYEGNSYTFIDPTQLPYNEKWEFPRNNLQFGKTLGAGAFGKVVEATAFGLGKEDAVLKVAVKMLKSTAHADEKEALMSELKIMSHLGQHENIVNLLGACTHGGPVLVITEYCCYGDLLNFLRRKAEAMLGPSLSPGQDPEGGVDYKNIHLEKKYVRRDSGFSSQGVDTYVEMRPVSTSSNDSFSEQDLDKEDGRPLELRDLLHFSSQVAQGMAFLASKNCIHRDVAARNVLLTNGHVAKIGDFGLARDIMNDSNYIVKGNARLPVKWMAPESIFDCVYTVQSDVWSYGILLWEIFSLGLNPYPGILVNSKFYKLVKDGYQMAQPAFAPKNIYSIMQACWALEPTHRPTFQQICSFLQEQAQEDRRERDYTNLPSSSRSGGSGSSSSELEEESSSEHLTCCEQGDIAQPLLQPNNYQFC
# B-Raf V600E, sequence (P15056 whole entry V600E): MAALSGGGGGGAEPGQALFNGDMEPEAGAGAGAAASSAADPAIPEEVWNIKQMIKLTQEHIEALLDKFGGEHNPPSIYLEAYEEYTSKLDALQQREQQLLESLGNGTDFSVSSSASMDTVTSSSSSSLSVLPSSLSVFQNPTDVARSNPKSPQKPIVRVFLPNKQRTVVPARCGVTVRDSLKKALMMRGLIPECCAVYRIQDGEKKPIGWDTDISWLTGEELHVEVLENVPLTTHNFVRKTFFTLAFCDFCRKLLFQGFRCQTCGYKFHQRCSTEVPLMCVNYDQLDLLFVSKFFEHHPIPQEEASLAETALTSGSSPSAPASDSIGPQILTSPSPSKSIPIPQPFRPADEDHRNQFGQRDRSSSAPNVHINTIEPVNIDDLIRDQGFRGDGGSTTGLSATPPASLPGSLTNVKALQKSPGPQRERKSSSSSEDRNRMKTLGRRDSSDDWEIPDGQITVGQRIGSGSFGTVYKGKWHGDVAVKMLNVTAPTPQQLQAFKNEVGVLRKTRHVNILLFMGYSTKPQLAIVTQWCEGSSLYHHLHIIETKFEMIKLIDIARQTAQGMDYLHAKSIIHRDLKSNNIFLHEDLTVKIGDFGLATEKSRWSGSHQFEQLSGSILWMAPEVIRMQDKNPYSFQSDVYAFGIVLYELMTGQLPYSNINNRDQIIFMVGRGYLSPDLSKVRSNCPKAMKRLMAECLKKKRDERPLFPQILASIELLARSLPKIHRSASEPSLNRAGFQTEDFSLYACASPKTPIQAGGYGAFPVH
# TrkA, sequence (P04629 33-796): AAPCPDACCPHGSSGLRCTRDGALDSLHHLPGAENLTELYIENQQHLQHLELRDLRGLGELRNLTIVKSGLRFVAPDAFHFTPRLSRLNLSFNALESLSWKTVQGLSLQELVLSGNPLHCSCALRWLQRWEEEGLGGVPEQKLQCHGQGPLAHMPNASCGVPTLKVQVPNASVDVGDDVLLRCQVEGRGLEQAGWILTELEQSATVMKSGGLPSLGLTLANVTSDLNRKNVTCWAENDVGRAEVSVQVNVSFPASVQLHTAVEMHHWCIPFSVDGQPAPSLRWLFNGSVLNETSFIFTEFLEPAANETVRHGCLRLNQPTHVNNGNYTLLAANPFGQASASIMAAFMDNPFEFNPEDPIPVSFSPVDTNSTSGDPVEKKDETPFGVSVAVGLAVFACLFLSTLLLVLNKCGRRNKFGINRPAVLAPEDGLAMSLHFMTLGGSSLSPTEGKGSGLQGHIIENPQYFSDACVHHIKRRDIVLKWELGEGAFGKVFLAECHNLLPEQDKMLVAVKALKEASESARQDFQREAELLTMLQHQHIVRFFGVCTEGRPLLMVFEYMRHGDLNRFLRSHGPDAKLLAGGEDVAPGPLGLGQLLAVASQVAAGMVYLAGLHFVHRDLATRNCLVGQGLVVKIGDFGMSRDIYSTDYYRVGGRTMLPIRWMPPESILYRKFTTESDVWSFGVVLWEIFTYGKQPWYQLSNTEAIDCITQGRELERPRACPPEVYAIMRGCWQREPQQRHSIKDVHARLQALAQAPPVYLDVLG
# Kit, sequence (P10721 26-976): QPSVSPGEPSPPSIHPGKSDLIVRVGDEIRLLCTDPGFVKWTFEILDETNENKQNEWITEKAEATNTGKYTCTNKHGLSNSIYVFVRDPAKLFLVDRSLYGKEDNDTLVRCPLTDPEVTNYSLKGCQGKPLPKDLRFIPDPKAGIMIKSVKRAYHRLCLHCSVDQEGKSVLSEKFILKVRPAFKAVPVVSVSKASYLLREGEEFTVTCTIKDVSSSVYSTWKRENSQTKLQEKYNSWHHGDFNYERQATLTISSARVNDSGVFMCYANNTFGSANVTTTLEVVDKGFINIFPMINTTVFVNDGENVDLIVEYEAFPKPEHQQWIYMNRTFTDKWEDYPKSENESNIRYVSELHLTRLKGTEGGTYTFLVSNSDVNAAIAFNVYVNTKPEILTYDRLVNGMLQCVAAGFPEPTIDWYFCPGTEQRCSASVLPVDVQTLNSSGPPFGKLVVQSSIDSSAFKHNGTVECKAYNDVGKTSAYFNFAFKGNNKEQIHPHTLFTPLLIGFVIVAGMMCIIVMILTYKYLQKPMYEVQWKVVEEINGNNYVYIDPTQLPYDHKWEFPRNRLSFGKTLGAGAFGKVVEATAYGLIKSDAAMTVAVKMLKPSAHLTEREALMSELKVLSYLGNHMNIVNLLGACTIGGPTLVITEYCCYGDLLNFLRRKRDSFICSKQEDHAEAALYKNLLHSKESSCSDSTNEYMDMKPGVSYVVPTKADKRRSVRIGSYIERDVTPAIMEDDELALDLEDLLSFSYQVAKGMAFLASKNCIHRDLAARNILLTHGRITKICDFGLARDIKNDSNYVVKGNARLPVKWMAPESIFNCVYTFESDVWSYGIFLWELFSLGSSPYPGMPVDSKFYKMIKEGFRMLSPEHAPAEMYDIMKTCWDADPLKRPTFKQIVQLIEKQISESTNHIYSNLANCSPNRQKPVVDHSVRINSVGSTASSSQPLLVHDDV
# B-Raf, sequence (P15056 whole entry): as the sequence (P15056 whole entry V600E) above, with E600V counted along it
# Btk, sequence (Q06187 whole entry): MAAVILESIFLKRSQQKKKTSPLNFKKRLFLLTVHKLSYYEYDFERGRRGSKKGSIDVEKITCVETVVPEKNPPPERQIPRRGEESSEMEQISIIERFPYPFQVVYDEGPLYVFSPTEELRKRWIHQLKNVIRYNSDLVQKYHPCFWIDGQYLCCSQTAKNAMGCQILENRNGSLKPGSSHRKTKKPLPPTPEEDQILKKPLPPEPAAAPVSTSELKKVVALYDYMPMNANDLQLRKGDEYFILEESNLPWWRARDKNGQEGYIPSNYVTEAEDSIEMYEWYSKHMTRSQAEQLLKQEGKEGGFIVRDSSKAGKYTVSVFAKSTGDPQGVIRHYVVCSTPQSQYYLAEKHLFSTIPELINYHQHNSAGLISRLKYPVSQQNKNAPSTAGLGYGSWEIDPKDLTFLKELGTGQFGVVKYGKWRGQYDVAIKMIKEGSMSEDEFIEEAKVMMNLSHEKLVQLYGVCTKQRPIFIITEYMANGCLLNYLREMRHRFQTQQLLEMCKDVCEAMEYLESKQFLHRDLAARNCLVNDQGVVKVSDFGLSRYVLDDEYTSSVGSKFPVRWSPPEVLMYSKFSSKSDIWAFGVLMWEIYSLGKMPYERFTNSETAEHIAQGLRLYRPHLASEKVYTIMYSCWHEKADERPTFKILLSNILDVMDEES
# C-Raf, sequence (P04049 whole entry): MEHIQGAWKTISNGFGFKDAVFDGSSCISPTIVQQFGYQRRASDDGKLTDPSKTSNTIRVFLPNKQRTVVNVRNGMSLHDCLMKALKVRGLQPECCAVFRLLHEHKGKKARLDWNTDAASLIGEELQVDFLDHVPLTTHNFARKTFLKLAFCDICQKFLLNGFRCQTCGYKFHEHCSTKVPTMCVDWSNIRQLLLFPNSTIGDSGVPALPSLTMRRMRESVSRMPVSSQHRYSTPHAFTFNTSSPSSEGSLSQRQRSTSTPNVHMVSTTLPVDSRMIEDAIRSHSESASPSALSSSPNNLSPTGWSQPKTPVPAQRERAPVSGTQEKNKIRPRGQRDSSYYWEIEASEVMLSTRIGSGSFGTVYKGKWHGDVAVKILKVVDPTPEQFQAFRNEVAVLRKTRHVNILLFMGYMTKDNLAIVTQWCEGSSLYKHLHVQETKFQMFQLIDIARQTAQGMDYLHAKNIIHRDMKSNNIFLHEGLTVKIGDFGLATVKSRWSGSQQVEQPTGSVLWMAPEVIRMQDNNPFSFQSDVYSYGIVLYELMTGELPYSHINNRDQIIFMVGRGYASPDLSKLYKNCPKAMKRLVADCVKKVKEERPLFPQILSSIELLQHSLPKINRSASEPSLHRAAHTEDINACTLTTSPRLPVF
pIC50 (Src),pIC50 (B-Raf V600E),pIC50 (C-Raf),pIC50 (Kdr),pIC50 (B-Raf),pIC50 (TrkA),pIC50 (MAP4K4),pIC50 (A-Raf),pIC50 (TEC),pIC50 (Kit),pIC50 (Fms),pIC50 (Flt1),pIC50 (Btk),pIC50 (PI3Kα),Structure (SMILES)
≥ 5.00,≥ 5.00,,≥ 5.00,≥ 5.00,≥ 5.00,,,≥ 5.00,≥ 5.00,≥ 5.00,,≥ 5.00,≥ 5.00,"CCCS(=O)(=O)Nc1ccc(F)c(C(=O)c2c[nH]c3ncc(-c4cn[nH]c4)cc23)c1F [P-2174, Propane-1-sulfonic acid {2,4-difluoro-3-[5-(1H-pyrazol-4-yl)-1H-pyrrolo[2,3-b]pyridine-3-carbonyl]-phenyl}-amide]"
≥ 5.00,≥ 5.00,,≥ 5.00,≥ 5.00,≥ 5.00,≥ 5.00,,,≥ 5.00,≥ 5.00,,≥ 5.00,,CCCS(=O)(=O)Nc1ccc(F)c(C(=O)c2c[nH]c3ncc(-c4ccn[nH]4)cc23)c1F [P-2176]
≥ 5.00,≥ 5.00,≥ 5.00,≥ 5.00,≥ 5.00,,≥ 5.00,,,≥ 5.00,≥ 5.00,≥ 5.00,,≥ 5.00,"CCCS(=O)(=O)Nc1ccc(F)c(C(=O)c2c[nH]c3ncc(-c4ccc(NC(C)=O)nc4)cc23)c1F [P-2193, N-(5-{3-[2,6-Difluoro-3-(propane-1-sulfonylamino)-benzoyl]-1H-pyrrolo[2,3-b]pyridin-5-yl}-pyridin-2-yl)-acetamide]"
≥ 5.00,≥ 5.00,≥ 5.00,≥ 5.00,≥ 5.00,,≥ 5.00,,≥ 5.00,≥ 5.00,≥ 5.00,≥ 5.00,≥ 5.00,≥ 5.00,"CCCS(=O)(=O)Nc1ccc(F)c(C(=O)c2c[nH]c3ncc(-c4ccc(N)nc4)cc23)c1F [P-2214, Propane-1-sulfonic acid {3-[5-(6-amino-pyridin-3-yl)-1H-pyrrolo[2,3-b]pyridine-3-carbonyl]-2,4-difluoro-phenyl}-amide]"
≥ 5.00,≥ 5.00,≥ 5.00,≥ 5.00,≥ 5.00,≥ 5.00,≥ 5.00,≥ 5.00,,≥ 5.00,,,,,"CCCS(=O)(=O)Nc1ccc(F)c(C(=O)c2c[nH]c3ncc(CCCOC)cc23)c1F [P-2240, propane-1-sulfonic acid {2,4-difluoro-3-[5-(3-methoxy-propyl)-1H-pyrrolo[2,3-b]pyridine-3-carbonyl]-phenyl}-amide]"
≥ 5.00,≥ 5.00,,≥ 5.00,≥ 5.00,≥ 5.00,≥ 5.00,,,≥ 5.00,≥ 5.00,,,,"CCCCS(=O)(=O)Nc1ccc(F)c(C(=O)c2c[nH]c3ncc(-c4ccc(F)cc4)cc23)c1F [P-2301, Butane-1-sulfonic acid {2,4-difluoro-3-[5-(4-fluoro-phenyl)-1H-pyrrolo[2,3-b]pyridine-3-carbonyl]-phenyl}-amide]"
≥ 5.00,≥ 5.00,,≥ 5.00,≥ 5.00,≥ 5.00,,,≥ 5.00,≥ 5.00,≥ 5.00,≥ 5.00,≥ 5.00,,"CCCCS(=O)(=O)Nc1ccc(F)c(C(=O)c2c[nH]c3ncc(-c4cnn(C)c4)cc23)c1F [P-2302, Butane-1-sulfonic acid {2,4-difluoro-3-[5-(1-methyl-1H-pyrazol-4-yl)-1H-pyrrolo[2,3-b]pyridine-3-carbonyl]-phenyl}-amide]"

# Continued, compound first:
Structure (SMILES),pIC50 (Src),pIC50 (B-Raf V600E),pIC50 (C-Raf),pIC50 (Kdr),pIC50 (B-Raf),pIC50 (TrkA),pIC50 (MAP4K4),pIC50 (A-Raf),pIC50 (TEC),pIC50 (Kit),pIC50 (Fms),pIC50 (Flt1),pIC50 (Btk),pIC50 (PI3Kα)
"COc1ccnc2[nH]cc(C(=O)c3cccc(NS(=O)(=O)c4ccc(C(F)(F)F)cc4)c3F)c12 [P-2060, N-[2-Fluoro-3-(4-methoxy-1H-pyrrolo[2,3-b]pyridine-3-carbonyl)-phenyl]-4-trifluoromethyl-benzenesulfonamide]",≥ 5.00,≥ 5.00,≥ 5.00,≥ 5.00,≥ 5.00,≥ 5.00,,,,,,,,
"COc1cnc2[nH]cc(C(=O)c3c(F)ccc(NS(=O)(=O)c4ncn[nH]4)c3F)c2c1 [P-2061, 2H-[1,2,4]Triazole-3-sulfonic acid [2,4-difluoro-3-(5-methoxy-1H-pyrrolo[2,3-b]pyridine-3-carbonyl)-phenyl]-amide]",≥ 5.00,≥ 5.00,≥ 5.00,≥ 5.00,,≥ 5.00,≥ 5.00,≥ 5.00,,,,,,
"Cn1cc(-c2cnc3[nH]cc(C(=O)c4cc(NS(=O)(=O)c5cccc(F)c5)ccc4F)c3c2)cn1 [P-2105, 3-Fluoro-N-{4-fluoro-3-[5-(1-methyl-1H-pyrazol-4-yl)-1H-pyrrolo[2,3-b]pyridine-3-carbonyl]-phenyl}-benzenesulfonamide]",≥ 5.00,≥ 5.00,≥ 5.00,≥ 5.00,≥ 5.00,≥ 5.00,≥ 5.00,,≥ 5.00,≥ 5.00,≥ 5.00,≥ 5.00,≥ 5.00,
"CCCS(=O)(=O)Nc1ccc(F)c(C(=O)c2c[nH]c3ncc(-c4ccc(S(=O)(=O)NC5CC5)cc4)cc23)c1F [P-2168, N-Cyclopropyl-4-{3-[2,6-difluoro-3-(propane-1-sulfonylamino)-benzoyl]-1H-pyrrolo[2,3-b]pyridin-5-yl}-benzenesulfonamide]",≥ 5.00,≥ 5.00,≥ 5.00,≥ 5.00,≥ 5.00,≥ 5.00,,,,≥ 5.00,≥ 5.00,,≥ 5.00,
"CCCS(=O)(=O)Nc1ccc(F)c(C(=O)c2c[nH]c3ncc(C#CCOC)cc23)c1F [P-2239, Propane-1-sulfonic acid {2,4-difluoro-3-[5-(3-methoxy-prop-1-ynyl)-1H-pyrrolo[2,3-b]pyridine-3-carbonyl]-phenyl}-amide]",≥ 5.00,≥ 5.00,≥ 5.00,≥ 5.00,≥ 5.00,≥ 5.00,≥ 5.00,≥ 5.00,,≥ 5.00,≥ 5.00,,,
"O=C(c1c(F)ccc(NS(=O)(=O)C(F)(F)F)c1F)c1c[nH]c2ncc(-c3ccc(F)cc3)cc12 [P-2344, N-{2,4-Difluoro-3-[5-(4-fluoro-phenyl)-1H-pyrrolo[2,3-b]pyridine-3-carbonyl]-phenyl}-C,C,C-trifluoro-methanesulfonamide]",≥ 5.00,≥ 5.00,,≥ 5.00,≥ 5.00,≥ 5.00,,,,≥ 5.00,≥ 5.00,,,
"Cn1cc(-c2cnc3[nH]cc(C(=O)c4c(F)ccc(NS(=O)(=O)C(F)(F)F)c4F)c3c2)cn1 [P-2345, N-{2,4-Difluoro-3-[5-(1-methyl-1H-pyrazol-4-yl)-1H-pyrrolo[2,3-b]pyridine-3-carbonyl]-phenyl}-C,C,C-trifluoro-methanesulfonamide]",≥ 5.00,≥ 5.00,,≥ 5.00,≥ 5.00,≥ 5.00,,,,≥ 5.00,,,≥ 5.00,

# Reference: patent US20120122860A1, “SOLID FORMS OF SULFONAMIDES AND AMINO ACIDS” (Plexxikon, Inc., priority 2009, published 2012)
